From patent publication US10988477B2 (Merck Patent GmbH, priority 2018, dated 2021)

Columns and labels:
[1] = target: intracellular GCN2 (phosphorylation of the GCN2 substrate eIF2α) (Homo sapiens, UniProt Q9P2K8); assay: GCN2 cellular inhibition assay (AlphaScreen SureFire P-eIF2α Ser51, borrelidin-treated U2OS cells); type: cell-based; details: biomarker assay, phosphorylated eIF2α Ser51 in borrelidin-treated U2OS cells
How it was run: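 U2OS, overnight attach; cpd 4-fold serial dil. from 40 μM final; borrelidin 10 μM, 1 h 37 °C/5% CO2; lyse; AlphaScreen P-eIF2α Ser51 (acceptor 2 h, donor overnight, RT, dark); % inhib. vs borrelidin-only.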

GCN2 kinase = GCN2 kinase (Homo sapiens, UniProt Q9P2K8); assay: GCN2 enzyme inhibition assay (Transcreener ADP2 fluorescence polarization); type: biochemical; details: 280 μM ATP
How it was run: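 FP detection of ADP (antibody plus Alexa633 tracer) after a 1 h, 25 °C kinase reaction. Enzyme 4 nM, ATP 280 μM, (RS)7 peptide 200 μM, Tris pH 7.5 buffer with MgCl2 and DTT. Percent inhibition fitted by non-linear tight-binding algorithm for IC50 and Ki(app).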

[2] = Enzyme activity for compounds of Formula IV, Ki(app), 25° C.
[3] = compounds of Formula II, 4 nM GCN2 kinase

GCN2 kinase, sequence (Q9P2K8 whole entry): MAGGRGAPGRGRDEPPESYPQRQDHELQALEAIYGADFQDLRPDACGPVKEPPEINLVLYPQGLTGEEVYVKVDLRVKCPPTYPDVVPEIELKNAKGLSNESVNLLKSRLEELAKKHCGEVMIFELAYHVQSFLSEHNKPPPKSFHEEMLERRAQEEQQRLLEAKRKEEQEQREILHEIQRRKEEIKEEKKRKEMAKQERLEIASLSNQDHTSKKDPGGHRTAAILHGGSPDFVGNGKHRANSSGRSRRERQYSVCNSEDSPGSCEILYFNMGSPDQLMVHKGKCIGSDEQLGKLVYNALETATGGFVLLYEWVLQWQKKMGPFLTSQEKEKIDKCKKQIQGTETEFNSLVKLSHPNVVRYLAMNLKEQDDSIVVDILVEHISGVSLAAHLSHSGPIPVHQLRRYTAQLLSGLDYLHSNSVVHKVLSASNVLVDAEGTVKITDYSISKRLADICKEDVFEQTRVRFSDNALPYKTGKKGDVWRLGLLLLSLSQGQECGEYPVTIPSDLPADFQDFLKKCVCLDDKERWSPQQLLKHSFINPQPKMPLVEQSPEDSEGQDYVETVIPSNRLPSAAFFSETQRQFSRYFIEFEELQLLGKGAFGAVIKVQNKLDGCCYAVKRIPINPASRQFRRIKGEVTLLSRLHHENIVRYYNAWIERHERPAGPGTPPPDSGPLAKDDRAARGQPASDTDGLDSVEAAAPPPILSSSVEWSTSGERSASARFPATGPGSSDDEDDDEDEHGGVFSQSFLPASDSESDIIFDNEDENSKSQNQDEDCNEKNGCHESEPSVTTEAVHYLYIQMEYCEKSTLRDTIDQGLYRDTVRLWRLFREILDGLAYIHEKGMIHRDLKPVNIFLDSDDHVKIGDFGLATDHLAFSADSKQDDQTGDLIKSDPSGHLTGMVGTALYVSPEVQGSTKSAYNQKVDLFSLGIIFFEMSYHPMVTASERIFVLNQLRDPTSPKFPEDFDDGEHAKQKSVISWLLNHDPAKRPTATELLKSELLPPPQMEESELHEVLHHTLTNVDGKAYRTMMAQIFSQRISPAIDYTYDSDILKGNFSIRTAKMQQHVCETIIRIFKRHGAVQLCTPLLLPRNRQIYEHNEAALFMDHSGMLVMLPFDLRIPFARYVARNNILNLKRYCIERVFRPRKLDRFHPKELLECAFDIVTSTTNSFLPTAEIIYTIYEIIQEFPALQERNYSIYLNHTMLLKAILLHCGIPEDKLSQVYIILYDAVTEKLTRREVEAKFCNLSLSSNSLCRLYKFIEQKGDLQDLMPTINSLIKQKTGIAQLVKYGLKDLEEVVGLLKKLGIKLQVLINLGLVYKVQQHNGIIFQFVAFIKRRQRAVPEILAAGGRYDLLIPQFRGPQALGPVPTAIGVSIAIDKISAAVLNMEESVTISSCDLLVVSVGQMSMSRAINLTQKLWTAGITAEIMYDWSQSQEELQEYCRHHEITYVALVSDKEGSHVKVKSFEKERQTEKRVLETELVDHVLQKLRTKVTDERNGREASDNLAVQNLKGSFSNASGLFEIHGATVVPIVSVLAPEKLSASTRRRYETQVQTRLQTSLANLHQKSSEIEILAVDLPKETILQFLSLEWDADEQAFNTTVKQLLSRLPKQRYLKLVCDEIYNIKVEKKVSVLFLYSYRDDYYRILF
intracellular GCN2 (phosphorylation of the GCN2 substrate eIF2α), sequence (Q9P2K8 whole entry): as above

SMILES	IC50 ([1]; compounds of Formula IV)	Ki (GCN2 kinase; [2])	IC50 ([1]; compounds of Formula II)	Ki (GCN2 kinase; [3])
C[C@H]1COCCN1c1ccnc(-c2cnc3cnc(C(F)F)cn23)n1 [IV-81, (S)-4-(2-(6-(Difluoromethyl)imidazo[1,2-a]pyrazin-3-yl)pyrimidin-4-yl)-3-methylmorpholine]	> 5000 nM	100 to 1000 nM		
NC(=O)CCC1CCCN(c2ccnc(-c3cnc4cnc(C(F)F)cn34)n2)C1 (stereo not shown) [IV-45, 3-(1-(2-(6-(Difluoromethyl)imidazo[1,2-a]pyrazin-3-yl)pyrimidin-4-yl)piperidin-3-yl)propanamide]	> 5000 nM	100 to 1000 nM		
NC(=O)CC1CN(c2cc(-c3cnc4ccc(C(F)F)nn34)ncn2)CCN1 (stereo not shown) [II-483, 2-(4-(6-(6-(Difluoromethyl)imidazo[1,2-b]pyridazin-3-yl)pyrimidin-4-yl)piperazin-2-yl)acetamide]			> 5000 nM	10 to 1000 nM
FC(F)c1cn2c(-c3nccc(N4CC5CCC(C4)O5)n3)cnc2cn1 [IV-91, 3-(2-(6-(Difluoromethyl)imidazo[1,2-a]pyrazin-3-yl)pyrimidin-4-yl)-8-oxa-3-azabicyclo[3.2.1]octane]	> 5000 nM	100 to 1000 nM		
CS(=O)(=O)CCN1CCC(c2cc(-c3cnc4ccc(C(F)F)nn34)ncn2)C1 (stereo not shown) [II-255, 6-(Difluoromethyl)-3-(6-(1-(2-(methylsulfonyl)ethyl)pyrrolidin-3-yl)pyrimidin-4-yl)imidazo[1,2-b]pyridazine]			> 5000 nM	10 to 1000 nM
CNc1cc(-c2cnc3ccc(C(F)F)nn23)cc(N2CCC[C@H](CNS(C)(=O)=O)C2)n1 [II-68, (S)—N-((1-(4-(6-(Difluoromethyl)imidazo[1,2-b]pyridazin-3-yl)-6-(methylamino)pyridin-2-yl)piperidin-3-yl)methyl)methanesulfonamide]			500 to 5000 nM	< 10 nM
CNS(=O)(=O)NCC1CCCN(c2cc(-c3cnc4ccc(C(F)F)nn34)ncn2)C1 (stereo not shown) [II-385, 1-((1-(6-(6-(Difluoromethyl)imidazo[1,2-b]pyridazin-3-yl)pyrimidin-4-yl)piperidin-3-yl)methyl)-3-methylsulfuric diamide]			< 500 nM	< 10 nM
C[C@@H]1COCCN1c1cc(-c2cnc3ccc(C(F)F)nn23)ncn1 [II-324, (R)-4-(6-(6-(Difluoromethyl)imidazo[1,2-b]pyridazin-3-yl)pyrimidin-4-yl)-3-methylmorpholine]			> 5000 nM	10 to 1000 nM
CNc1cc(N2CC(C)NC(c3cn[nH]c3)C2C)nc(-c2cnc3cnc(C(F)(F)F)cn23)n1 (stereo not shown) [IV-578, 6-(2,5-Dimethyl-3-(1H-pyrazol-4-yl)piperazin-1-yl)-N-methyl-2-(6-(trifluoromethyl)imidazo[1,2-a]pyrazin-3-yl)pyrimidin-4-amine]	500 to 5000 nM	< 10 nM		
CC1CN(c2cc(-c3cnc4ccc(C(F)F)nn34)ncn2)CC(CNS(C)(=O)=O)O1 (stereo not shown) [II-31, N-((4-(6-(6-(Difluoromethyl)imidazo[1,2-b]pyridazin-3-yl)pyrimidin-4-yl)-6-methylmorpholin-2-yl)methyl)methanesulfonamide]			< 500 nM	< 10 nM
CS(=O)(=O)NCC1CCCN(c2cc(-c3cnc4ccc(C(F)F)nn34)cc(C(F)(F)F)n2)C1 (stereo not shown) [II-63, N-((1-(4-(6-(Difluoromethyl)imidazo[1,2-b]pyridazin-3-yl)-6-(trifluoromethyl)pyridin-2-yl)piperidin-3-yl)methyl)methanesulfonamide]			> 5000 nM	< 10 nM
O=C1CCC2(CCN(c3cc(-c4cnc5ccc(C(F)F)nn45)ncn3)CC2)CN1 [II-211, 9-(6-(6-(Difluoromethyl)imidazo[1,2-b]pyridazin-3-yl)pyrimidin-4-yl)-2,9-diazaspiro[5.5]undecan-3-one]			500 to 5000 nM	10 to 1000 nM
CC(NS(C)(=O)=O)C1CN(c2cc(-c3cnc4ccc(C(F)F)nn34)ncn2)CCN1C (stereo not shown) [II-474, N-(1-(4-(6-(6-(Difluoromethyl)imidazo[1,2-b]pyridazin-3-yl)pyrimidin-4-yl)-1-methylpiperazin-2-yl)ethyl)methanesulfonamide]			500 to 5000 nM	10 to 1000 nM
C[C@H]1[C@@H](C[S@@](C)(=N)=O)CCCN1c1cc(-c2cnc3ccc(C(F)F)nn23)ncn1 [II-485, (S)-(((2S,3S)-1-(6-(6-(Difluoromethyl)imidazo[1,2-b]pyridazin-3-yl)pyrimidin-4-yl)-2-methylpiperidin-3-yl)methyl)(imino)(methyl)-λ^6-sulfanone]			< 500 nM	< 10 nM
CC1CN(c2ccnc(-c3cnc4ccc(C(F)F)nn34)c2)CC(CNS(C)(=O)=O)O1 (stereo not shown) [II-94, N-((4-(2-(6-(Difluoromethyl)imidazo[1,2-b]pyridazin-3-yl)pyridin-4-yl)-6-methylmorpholin-2-yl)methyl)methanesulfonamide]			< 500 nM	< 10 nM
C[C@@H]1CN(c2ccnc(-c3cnc4cnc(C(F)(F)F)cn34)n2)C[C@@H](c2cn[nH]c2)O1 (racemic) [IV-11, Trans-2-Methyl-6-(1H-pyrazol-4-yl)-4-(2-(6-(trifluoromethyl)imidazo[1,2-a]pyrazin-3-yl)pyrimidin-4-yl)morpholine]	500 to 5000 nM	10 to 100 nM		
CC1CN(c2ccnc(-c3cnc4cnc(C#N)cn34)n2)C(C)C(c2cn[nH]c2)N1 (stereo not shown) [IV-305, 3-(4-(2,5-Dimethyl-3-(1H-pyrazol-4-yl)piperazin-1-yl)pyrimidin-2-yl)imidazo[1,2-a]pyrazine-6-carbonitrile]	500 to 5000 nM	< 10 nM		
CC1CN(c2ccnc(-c3cnc4cnc(Br)cn34)n2)CC(c2cn[nH]c2)N1 (single isomer, unassigned) [IV-365, 6-Bromo-3-(4-(3-methyl-5-(1H-pyrazol-4-yl)piperazin-1-yl)pyrimidin-2-yl)imidazo[1,2-a]pyrazine]	500 to 5000 nM	< 10 nM		
OC[C@@H]1CN(c2cc(-c3cnc4ccc(C(F)F)nn34)ncn2)C[C@@H](C(F)(F)F)O1 [II-297, ((2S,6S)-4-(6-(6-(Difluoromethyl)imidazo[1,2-b]pyridazin-3-yl)pyrimidin-4-yl)-6-(trifluoromethyl)morpholin-2-yl)methanol]			500 to 5000 nM	10 to 1000 nM
CC1C(CNS(C)(=O)=O)C(F)(F)C(C)CN1c1cc(-c2cnc3ccc(C(F)F)nn23)ncn1 (single isomer, unassigned) [II-469, N-((1-(6-(6-(Difluoromethyl)imidazo[1,2-b]pyridazin-3-yl)pyrimidin-4-yl)-4,4-difluoro-2,5-dimethylpiperidin-3-yl)methyl)methanesulfonamide]			500 to 5000 nM	10 to 1000 nM
CC1C[S+]([O-])CCN1c1cc(-c2cnc3ccc(C(F)F)nn23)ncn1 (single isomer, unassigned) [II-356, 4-(6-(6-(Difluoromethyl)imidazo[1,2-b]pyridazin-3-yl)pyrimidin-4-yl)-3-methylthiomorpholine 1-oxide]			> 5000 nM	10 to 1000 nM
NS(=O)(=O)CC1CCCN(c2ccnc(-c3cnc4cnc(C(F)F)cn34)n2)C1 (stereo not shown) [IV-114, (1-(2-(6-(Difluoromethyl)imidazo[1,2-a]pyrazin-3-yl)pyrimidin-4-yl)piperidin-3-yl)methanesulfonamide]	> 5000 nM	100 to 1000 nM		
CS(=O)(=O)NC[C@@H]1CN(c2cc(-c3cnc4ccc(C5CC5)nn34)ncn2)CCO1 [II-249, (S)—N-((4-(6-(6-Cyclopropylimidazo[1,2-b]pyridazin-3-yl)pyrimidin-4-yl)morpholin-2-yl)methyl)methanesulfonamide]			500 to 5000 nM	10 to 1000 nM
CN(CC1CCCN(c2cc(-c3cnc4ccc(C(F)F)nn34)ncn2)C1)S(C)(=O)=O (stereo not shown) [II-310, N-((1-(6-(6-(Difluoromethyl)imidazo[1,2-b]pyridazin-3-yl)pyrimidin-4-yl)piperidin-3-yl)methyl)-N-methylmethanesulfonamide]			500 to 5000 nM	10 to 1000 nM
CS(=O)(=O)NCC1CCCN(c2cncc(-c3cnc4ccc(C(F)F)nn34)c2)C1 (stereo not shown) [II-87, N-((1-(5-(6-(Difluoromethyl)imidazo[1,2-b]pyridazin-3-yl)pyridin-3-yl)piperidin-3-yl)methyl)methanesulfonamide]			500 to 5000 nM	< 10 nM
FC(F)(F)c1cn2c(-c3nccc(N4CCC=C(c5cnsc5)C4)n3)cnc2cn1 [IV-535, 4-(1-(2-(6-(Trifluoromethyl)imidazo[1,2-a]pyrazin-3-yl)pyrimidin-4-yl)-1,2,5,6-tetrahydropyridin-3-yl)isothiazole]	500 to 5000 nM	10 to 100 nM		
OCC1CCCN(c2ccnc(-c3cnc4cnc(C(F)(F)F)cn34)n2)C1 (stereo not shown) [IV-439, (1-(2-(6-(Trifluoromethyl)imidazo[1,2-a]pyrazin-3-yl)pyrimidin-4-yl)piperidin-3-yl)methanol]	> 5000 nM	100 to 1000 nM		
CS(=O)(=O)N1CC2CCN(c3cc(-c4cnc5ccc(C(F)F)nn45)ncn3)CC21 (stereo not shown) [II-181, 6-(Difluoromethyl)-3-(6-(8-(methylsulfonyl)-3,8-diazabicyclo[4.2.0]octan-3-yl)pyrimidin-4-yl)imidazo[1,2-b]pyridazine]			> 5000 nM	> 1000 nM
CC1CC(CNS(C)(=O)=O)CN(c2cc(-c3cnc4ccc(C(F)F)nn34)ncn2)C1 (stereo not shown) [II-398, N-((1-(6-(6-(Difluoromethyl)imidazo[1,2-b]pyridazin-3-yl)pyrimidin-4-yl)-5-methylpiperidin-3-yl)methyl)methanesulfonamide]			500 to 5000 nM	10 to 1000 nM
